In patent publication US9062124B2, “GIP-based mixed agonists for treatment of metabolic disorders and obesity” (priority 2008, dated 2015):
Where a SMILES comes first, the peptide text is derived from it. Bridges are numbered along the chain shown (N, C = ends).

Experiments:
Format in all cases: cell-based
[1] = biological target: T1, glucagon receptor (Homo sapiens, UniProt P47871); assay: cAMP synthesis functional assay (firefly luciferase reporter in HEK293 cells), glucagon receptor; details: Table 1; relative to the native hormone of the indicated receptor
T1 construct: expressed in transfected cells; host or cells: HEK293

[2] = biological target: T2, GLP-1 receptor (Homo sapiens, UniProt P43220); assay: cAMP synthesis functional assay (firefly luciferase reporter in HEK293 cells), GLP-1 receptor; details: Table 1; for GLP-1 Receptor relative activity: relative to the native hormone of the indicated receptor; for EC50: GLP-1 Receptor EC50, nM
T2 construct: expressed in transfected cells; host or cells: HEK293

[3] = biological target: T3, GIP receptor (Homo sapiens, UniProt P48546); assay: cAMP synthesis functional assay (firefly luciferase reporter in HEK293 cells), GIP receptor; details: Table 1; relative to the native hormone of the indicated receptor
T3 construct: expressed in transfected cells; host or cells: HEK293
T3 sequence (P48546 22-466): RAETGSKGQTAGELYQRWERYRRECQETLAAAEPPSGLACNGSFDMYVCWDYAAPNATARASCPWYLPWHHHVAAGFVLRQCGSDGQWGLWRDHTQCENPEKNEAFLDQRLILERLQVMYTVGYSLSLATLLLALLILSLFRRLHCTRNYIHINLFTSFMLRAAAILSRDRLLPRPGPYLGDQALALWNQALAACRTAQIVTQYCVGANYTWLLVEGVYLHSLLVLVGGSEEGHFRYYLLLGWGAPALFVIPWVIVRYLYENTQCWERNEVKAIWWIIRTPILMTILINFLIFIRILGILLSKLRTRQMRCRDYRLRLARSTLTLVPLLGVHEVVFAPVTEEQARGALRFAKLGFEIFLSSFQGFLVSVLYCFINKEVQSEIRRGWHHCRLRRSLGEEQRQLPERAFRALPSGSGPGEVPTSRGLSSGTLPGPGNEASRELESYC

T2 sequence (P43220 24-463, species assumed): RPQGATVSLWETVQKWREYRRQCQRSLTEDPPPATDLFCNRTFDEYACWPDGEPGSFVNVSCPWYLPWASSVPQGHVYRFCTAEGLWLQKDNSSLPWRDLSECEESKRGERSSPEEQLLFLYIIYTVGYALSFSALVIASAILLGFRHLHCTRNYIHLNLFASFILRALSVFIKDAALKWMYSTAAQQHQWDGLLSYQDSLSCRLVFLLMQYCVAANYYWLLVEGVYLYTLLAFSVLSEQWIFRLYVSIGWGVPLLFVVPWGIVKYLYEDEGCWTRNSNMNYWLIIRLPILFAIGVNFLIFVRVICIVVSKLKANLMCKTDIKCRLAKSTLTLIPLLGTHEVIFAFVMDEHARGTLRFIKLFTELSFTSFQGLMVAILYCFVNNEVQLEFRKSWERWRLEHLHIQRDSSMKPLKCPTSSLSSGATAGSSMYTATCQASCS
T1 sequence (P47871 26-477): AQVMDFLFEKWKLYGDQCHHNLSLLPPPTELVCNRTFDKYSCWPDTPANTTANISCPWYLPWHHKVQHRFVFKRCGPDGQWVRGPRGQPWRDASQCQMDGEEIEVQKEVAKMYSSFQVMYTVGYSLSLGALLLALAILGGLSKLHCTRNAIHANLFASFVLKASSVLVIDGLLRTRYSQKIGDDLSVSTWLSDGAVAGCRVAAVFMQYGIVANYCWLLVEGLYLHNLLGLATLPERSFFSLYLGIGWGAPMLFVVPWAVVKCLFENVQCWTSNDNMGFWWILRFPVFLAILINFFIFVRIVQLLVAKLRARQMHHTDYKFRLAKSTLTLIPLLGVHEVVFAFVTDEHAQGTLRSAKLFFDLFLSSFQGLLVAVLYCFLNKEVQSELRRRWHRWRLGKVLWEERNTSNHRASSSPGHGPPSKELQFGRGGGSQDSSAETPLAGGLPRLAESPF

| SMILES | Glucagon Receptor relative activity [1] | GLP-1 Receptor relative activity [2] | GIP Receptor relative activity [3] | EC50 [2] |
| --- | --- | --- | --- | --- |
| CC[C@H](C)[C@H](NC(=O)[C@H](Cc1ccccc1)NC(=O)[C@H](CCC(=O)O)NC(=O)[C@@H]1CCCCNC(=O)CC[C@H](NC(=O)[C@H](CC(=O)O)NC(=O)[C@H](CC(C)C)NC(=O)[C@H](Cc2ccc(O)cc2)NC(=O)[C@H](CCCCN)NC(=O)[C@H](CO)NC(=O)[C@H](Cc2ccc(O)cc2)NC(=O)[C@H](CC(=O)O)NC(=O)[C@H](CO)NC(=O)[C@@H](NC(=O)[C@H](Cc2ccccc2)NC(=O)[C@@H](NC(=O)CNC(=O)[C@H](CCC(N)=O)NC(=O)[C@H](CO)NC(=O)[C@@H](N)Cc2ccc(O)cc2)[C@@H](C)O)[C@@H](C)O)C(=O)N[C@@H](CCC(N)=O)C(=O)N[C@@H](C)C(=O)N[C@@H](C)C(=O)N1)C(=O)N[C@@H](C)C(=O)N[C@@H](Cc1c[nH]c2ccccc12)C(=O)N[C@@H](CC(C)C)C(=O)N[C@@H](CC(C)C)C(=O)N[C@@H](C)C(=O)NCC(=O)NCC(=O)N1CCC[C@H]1C(=O)N[C@@H](CO)C(=O)N[C@@H](CO)C(=O)NCC(=O)N[C@@H](C)C(=O)N1CCC[C@H]1C(=O)N1CCC[C@H]1C(=O)N1CCC[C@H]1C(=O)N[C@@H](CO)C(N)=O [mt-139] (H-YSQGTFTSDYSKYLDEQAAKEFIAWLLAGGPSSGAPPPS-NH2; lactam 16-20; N-terminus assumed) | 561.11% | 41.46% | 12.22% | – |
| CSCC[C@H](NC(=O)[C@H](Cc1ccc(O)cc1)NC(=O)[C@H](CCCCN)NC(=O)[C@H](CO)NC(=O)[C@H](Cc1ccc(O)cc1)NC(=O)[C@H](CC(=O)O)NC(=O)[C@H](CO)NC(=O)[C@@H](NC(=O)[C@H](Cc1ccccc1)NC(=O)[C@@H](NC(=O)CNC(=O)[C@H](CCC(N)=O)NC(=O)[C@H](CO)NC(=O)[C@@H](N)Cc1ccc(O)cc1)[C@@H](C)O)[C@@H](C)O)C(=O)N[C@@H](CC(=O)O)C(=O)N[C@H]1CCC(=O)NCCCC[C@@H](C(=O)N[C@@H](CCC(=O)O)C(=O)N[C@@H](Cc2ccccc2)C(=O)N[C@H](C(=O)N[C@@H](CC(N)=O)C(=O)N[C@@H](Cc2c[nH]c3ccccc23)C(=O)N[C@@H](CC(C)C)C(=O)N[C@@H](CC(C)C)C(=O)N[C@@H](C)C(=O)NCC(=O)NCC(=O)N2CCC[C@H]2C(=O)N[C@@H](CO)C(=O)N[C@@H](CO)C(=O)NCC(=O)N[C@@H](C)C(=O)N2CCC[C@H]2C(=O)N2CCC[C@H]2C(=O)N2CCC[C@H]2C(=O)N[C@@H](CO)C(N)=O)C(C)C)NC(=O)[C@H](C)NC(=O)[C@H](C)NC(=O)[C@H](CCC(N)=O)NC1=O [mt-141] (H-YSQGTFTSDYSKYMDEQAAKEFVNWLLAGGPSSGAPPPS-NH2; lactam 16-20; N-terminus assumed) | 269.33% | 36.78% | 10.04% | 0.16 nM |
| CC(C)C[C@H](NC(=O)[C@H](CC(C)C)NC(=O)[C@H](Cc1c[nH]c2ccccc12)NC(=O)[C@H](CC(N)=O)NC(=O)[C@@H](NC(=O)[C@H](Cc1ccccc1)NC(=O)[C@H](CCC(=O)O)NC(=O)[C@@H]1CCCCNC(=O)CC[C@H](NC(=O)[C@H](CC(=O)O)NC(=O)[C@H](CC(C)C)NC(=O)[C@H](Cc2ccc(O)cc2)NC(=O)[C@H](CCCCN)NC(=O)[C@H](CO)NC(=O)[C@H](Cc2ccc(O)cc2)NC(=O)[C@H](CC(=O)O)NC(=O)[C@H](CO)NC(=O)[C@@H](NC(=O)[C@H](Cc2ccccc2)NC(=O)[C@@H](NC(=O)CNC(=O)[C@H](CCC(N)=O)NC(=O)[C@H](CO)NC(=O)[C@@H](N)Cc2ccc(O)cc2)[C@@H](C)O)[C@@H](C)O)C(=O)N[C@@H](CCCNC(=N)N)C(=O)N[C@@H](CCCNC(=N)N)C(=O)N[C@@H](C)C(=O)N1)C(C)C)C(=O)N[C@@H](C)C(=O)NCC(=O)NCC(=O)N1CCC[C@H]1C(=O)N[C@@H](CO)C(=O)N[C@@H](CO)C(=O)NCC(=O)N[C@@H](C)C(=O)N1CCC[C@H]1C(=O)N1CCC[C@H]1C(=O)N1CCC[C@H]1C(=O)N[C@@H](CO)C(N)=O [mt-143] (H-YSQGTFTSDYSKYLDERRAKEFVNWLLAGGPSSGAPPPS-NH2; lactam 16-20; N-terminus assumed) | 496.51% | 4.53% | 1.82% | – |
| CC[C@H](C)[C@H](NC(=O)[C@H](CO)NC(=O)[C@H](Cc1ccc(O)cc1)NC(=O)[C@H](CC(=O)O)NC(=O)[C@H](CO)NC(=O)[C@@H](NC(=O)[C@H](Cc1ccccc1)NC(=O)[C@@H](NC(=O)CNC(=O)[C@H](CCC(N)=O)NC(=O)[C@H](C)NC(=O)[C@@H](N)Cc1ccc(O)cc1)[C@@H](C)O)[C@@H](C)O)C(=O)N[C@@H](Cc1ccc(O)cc1)C(=O)N[C@@H](CCSC)C(=O)N[C@@H](CC(=O)O)C(=O)N[C@H]1CCC(=O)NCCCC[C@@H](C(=O)N[C@@H](CCC(=O)O)C(=O)N[C@@H](Cc2ccccc2)C(=O)N[C@H](C(=O)N[C@@H](CC(N)=O)C(=O)N[C@@H](Cc2c[nH]c3ccccc23)C(=O)N[C@@H](CC(C)C)C(=O)N[C@@H](CC(C)C)C(=O)N[C@@H](C)C(=O)NCC(=O)NCC(=O)N2CCC[C@H]2C(=O)N[C@@H](CO)C(=O)N[C@@H](CO)C(=O)NCC(=O)N[C@@H](C)C(=O)N2CCC[C@H]2C(=O)N2CCC[C@H]2C(=O)N2CCC[C@H]2C(=O)N[C@@H](CO)C(N)=O)C(C)C)NC(=O)[C@H](C)NC(=O)[C@H](C)NC(=O)[C@H](CCC(N)=O)NC1=O [mt-144] (H-YAQGTFTSDYSIYMDEQAAKEFVNWLLAGGPSSGAPPPS-NH2; lactam 16-20; N-terminus assumed) | 16.77% | 141.67% | 18.54% | 0.036 nM |
| CC[C@H](C)[C@H](NC(=O)[C@H](Cc1ccccc1)NC(=O)[C@@H](NC(=O)CNC(=O)[C@H](CCC(N)=O)NC(=O)[C@H](C)NC(=O)[C@@H](N)Cc1ccc(O)cc1)[C@@H](C)O)C(=O)N[C@@H](CO)C(=O)N[C@@H](CC(=O)O)C(=O)N[C@@H](Cc1ccc(O)cc1)C(=O)N[C@@H](CO)C(=O)N[C@@H](CCCCN)C(=O)N[C@@H](Cc1ccc(O)cc1)C(=O)N[C@@H](CC(C)C)C(=O)N[C@@H](CC(=O)O)C(=O)N[C@H]1CCC(=O)NCCCC[C@@H](C(=O)N[C@@H](CCC(=O)O)C(=O)N[C@@H](Cc2ccccc2)C(=O)N[C@H](C(=O)N[C@@H](CC(N)=O)C(=O)N[C@@H](Cc2c[nH]c3ccccc23)C(=O)N[C@@H](CC(C)C)C(=O)N[C@@H](CC(C)C)C(=O)N[C@@H](C)C(=O)NCC(=O)NCC(=O)N2CCC[C@H]2C(=O)N[C@@H](CO)C(=O)N[C@@H](CO)C(=O)NCC(=O)N[C@@H](C)C(=O)N2CCC[C@H]2C(=O)N2CCC[C@H]2C(=O)N2CCC[C@H]2C(=O)N[C@@H](CO)C(N)=O)C(C)C)NC(=O)[C@H](C)NC(=O)[C@H](C)NC(=O)[C@H](CCC(N)=O)NC1=O [mt-145] (H-YAQGTFISDYSKYLDEQAAKEFVNWLLAGGPSSGAPPPS-NH2; lactam 16-20; N-terminus assumed) | 47.06% | 0.33% | 4.79% | – |
| CC[C@H](C)[C@H](NC(=O)[C@H](Cc1ccccc1)NC(=O)[C@@H](NC(=O)CNC(=O)[C@H](CCC(N)=O)NC(=O)[C@H](C)NC(=O)[C@@H](N)Cc1ccc(O)cc1)[C@@H](C)O)C(=O)N[C@@H](CO)C(=O)N[C@@H](CC(=O)O)C(=O)N[C@@H](Cc1ccc(O)cc1)C(=O)N[C@@H](CO)C(=O)N[C@@H](CCCCN)C(=O)N[C@@H](Cc1ccc(O)cc1)C(=O)N[C@@H](CC(C)C)C(=O)N[C@@H](CC(=O)O)C(=O)N[C@H]1CCC(=O)NCCCC[C@@H](C(=O)N[C@@H](CCC(=O)O)C(=O)N[C@@H](Cc2ccccc2)C(=O)N[C@H](C(=O)N[C@@H](CC(N)=O)C(=O)N[C@@H](Cc2c[nH]c3ccccc23)C(=O)N[C@@H](CC(C)C)C(=O)N[C@@H](CC(C)C)C(=O)N[C@@H](C)C(=O)NCC(=O)NCC(=O)N2CCC[C@H]2C(=O)N[C@@H](CO)C(=O)N[C@@H](CO)C(=O)NCC(=O)N[C@@H](C)C(=O)N2CCC[C@H]2C(=O)N2CCC[C@H]2C(=O)N2CCC[C@H]2C(=O)N[C@@H](CO)C(N)=O)C(C)C)NC(=O)[C@H](C)NC(=O)[C@H](C)NC(=O)[C@H](CCC(N)=O)NC1=O [mt-146] (H-YAQGTFISDYSKYLDEQAAKEFVNWLLAGGPSSGAPPPS-NH2; lactam 16-20; N-terminus assumed) | 480.00% | 0.25% | 13.30% | – |
| CC[C@H](C)[C@H](NC(=O)[C@H](CO)NC(=O)[C@H](Cc1ccc(O)cc1)NC(=O)[C@H](CC(=O)O)NC(=O)[C@H](CO)NC(=O)[C@@H](NC(=O)[C@H](Cc1ccccc1)NC(=O)[C@@H](NC(=O)CNC(=O)[C@H](CCC(N)=O)NC(=O)[C@H](CO)NC(=O)[C@@H](N)Cc1ccc(O)cc1)[C@@H](C)O)[C@@H](C)CC)C(=O)N[C@@H](Cc1ccc(O)cc1)C(=O)N[C@@H](CC(C)C)C(=O)N[C@@H](CC(=O)O)C(=O)N[C@H]1CCC(=O)NCCCC[C@@H](C(=O)N[C@@H](CCC(=O)O)C(=O)N[C@@H](Cc2ccccc2)C(=O)N[C@H](C(=O)N[C@@H](CC(N)=O)C(=O)N[C@@H](Cc2c[nH]c3ccccc23)C(=O)N[C@@H](CC(C)C)C(=O)N[C@@H](CC(C)C)C(=O)N[C@@H](C)C(=O)NCC(=O)NCC(=O)N2CCC[C@H]2C(=O)N[C@@H](CO)C(=O)N[C@@H](CO)C(=O)NCC(=O)N[C@@H](C)C(=O)N2CCC[C@H]2C(=O)N2CCC[C@H]2C(=O)N2CCC[C@H]2C(=O)N[C@@H](CO)C(N)=O)C(C)C)NC(=O)[C@H](C)NC(=O)[C@H](C)NC(=O)[C@H](CCC(N)=O)NC1=O [mt-150] (H-YSQGTFISDYSIYLDEQAAKEFVNWLLAGGPSSGAPPPS-NH2; lactam 16-20; N-terminus assumed) | 316.67% | 1.09% | 26.72% | – |
